From patent US20160368895A1, “PULMONARY HYPERTENSION TREATING AGENT” (THE UNIVERSITY OF TOKYO, priority 2013, published 2016)

Molecular target: T1, human PGI2 receptors (hIP) (Homo sapiens, UniProt P43119)
T1 construct: expressed in transfected cells; host or cells: CHO-K1
Assay: Method A: positive allosteric modulator activity, cAMP in CHO/hIP cells with 100 pM iloprost
Type: cell-based
Details: cAMP relative to 100 pM iloprost alone, test compound 5 uM
Protocol: The positive allosteric modulator activity of a test compound was measured as a change in the amount of intracellular cyclic AMP (cAMP) in the presence of 100 pM of the IP agonist iloprost (manufactured by CAYMAN CHEMICAL), using CHO-K1 cells (CHO/hIP cells) in which human PGI2 receptors (hIP) are stably expressed.
An amount of 5 μL of a mixture (diluted in F-12 culture medium (manufactured by GIBCO) including 0.1% BSA) of iloprost dissolved in DMSO and a test compound dissolved in DMSO was dispensed in advance into a 384-well black microplate, and 5 μL of CHO/hIP cells suspended at a concentration of 1.6×10^6 cells/mL in F-12 culture medium including 0.1% BSA were added to the microplate. After 40 minutes of incubation at room temperature, the amount of cAMP was measured using a cAMP assay kit (cAMP HiRange, manufactured by Cisbio Bioassays). Specifically, 5 μL of a cAMP-d2 solution (including a cell lysate) from the kit were added and the reaction was stopped, then 5 μL of a fluorescence-labeled cAMP antibody solution from the kit was added and incubation was performed for 1 hour at room temperature, after which fluorescence was measured using a PHERAstar plate reader (manufactured by BMG) in HTRF (registered trademark) mode. The amount of cAMP in each well was calculated from a cAMP calibration curve obtained using a standard sample, and the activity of each test compound is noted below as a ratio T/C (%) based on the amount of cAMP for 100 pM of isoprost alone. All of the compounds included in this table were purchased from Asinex Corporation.

T1 sequence (P43119 whole entry): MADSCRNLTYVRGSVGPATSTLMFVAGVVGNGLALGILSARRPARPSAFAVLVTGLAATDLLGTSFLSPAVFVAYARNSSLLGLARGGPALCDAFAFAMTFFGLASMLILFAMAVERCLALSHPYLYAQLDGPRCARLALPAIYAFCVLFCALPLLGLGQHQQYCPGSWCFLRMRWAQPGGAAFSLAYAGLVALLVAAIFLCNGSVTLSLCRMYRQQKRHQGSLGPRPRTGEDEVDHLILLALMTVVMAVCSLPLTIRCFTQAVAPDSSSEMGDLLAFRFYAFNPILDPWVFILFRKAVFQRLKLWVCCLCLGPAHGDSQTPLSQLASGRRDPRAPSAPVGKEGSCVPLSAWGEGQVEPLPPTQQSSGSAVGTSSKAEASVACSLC

Row | SMILES | T/C %
1 | COc1ccc(C(c2nnnn2Cc2ccccc2)N2CCc3ccccc3C2)cc1OC (stereo not shown) | 90%
2 | Cc1ccc(S(=O)(=O)Cn2nnnc2C(c2ccc(O)cc2)N2CCc3ccccc3C2)cc1 (stereo not shown) | 104%
3 | CC(C)(C)n1nnnc1C(c1ccccc1)N1CCc2ccccc2C1 (stereo not shown) [drawing 104] | 143%
4 | CC(C)(C)n1nnnc1C(c1ccc(Cl)cc1)N1CCc2ccccc2C1 (stereo not shown) [drawing 118] | 113%
5 | Cc1ccc(C(c2nnnn2C(C)(C)C)N2CCc3ccccc3C2)cc1 (stereo not shown) [drawing 143] | 112%

Same assay, conditions: cAMP relative to 100 pM iloprost alone, test compound 10 uM

Row | SMILES | T/C %
6 | Cc1ccc(Cn2nnnc2C(c2ccccc2)N2CCc3ccccc3C2)cc1 (stereo not shown) | 117%
7 | CCC(C)(C)n1nnnc1C(c1ccccc1)N1CCc2ccccc2C1 (stereo not shown) | 202%
8 | CN(C)c1ccc(C(c2nnnn2C2CCCC2)N2CCc3ccccc3C2)cc1 (stereo not shown) | 103%
9 | COc1ccc(OC)c(C(c2nnnn2C(C)(C)C)N2CCc3ccccc3C2)c1 (stereo not shown) | 100%
10 | COc1ccc(C(c2nnnn2CS(=O)(=O)c2ccc(C)cc2)N2CCc3ccccc3C2)cc1 (stereo not shown) | 101%
11 | Cc1ccc(C(c2nnnn2C2CCCCC2)N2CCc3ccccc3C2)cc1 (stereo not shown) | 100%
12 | Clc1ccc(C(c2nnnn2C2CCCC2)N2CCc3ccccc3C2)cc1 (stereo not shown) | 110%
13 | COc1ccc(C(c2nnnn2C(C)(C)C)N2CCc3ccccc3C2)cc1OC (stereo not shown) | 103%
14 | CCC(C)(C)n1nnnc1C(c1ccc(OC)c(OC)c1)N1CCc2ccccc2C1 (stereo not shown) | 103%
15 | COc1ccc(C(c2nnnn2CCc2ccccc2)N2CCc3ccccc3C2)c(OC)c1 (stereo not shown) | 106%
16 | Fc1ccc(C(c2nnnn2C2CCCCC2)N2CCc3ccccc3C2)cc1 (stereo not shown) | 104%
17 | c1ccc(Cn2nnnc2C(c2ccccc2)N2CCc3ccccc3C2)cc1 (stereo not shown) | 112%
18 | CCC(C)(C)n1nnnc1C(c1ccc(Cl)cc1)N1CCc2ccccc2C1 (stereo not shown) | 148%
19 | CCC(C)(C)n1nnnc1C(c1ccc(F)cc1)N1CCc2ccccc2C1 (stereo not shown) | 155%
20 | COc1ccc(C(c2nnnn2CCc2ccccc2)N2CCc3ccccc3C2)cc1OC (stereo not shown) | 106%
21 | COc1ccc(C(c2nnnn2Cc2ccccc2)N2CCc3ccccc3C2)c(OC)c1 (stereo not shown) | 103%
22 | COCCn1nnnc1C(c1ccc(O)cc1OC)N1CCc2ccccc2C1 (stereo not shown) | 97%
23 | COc1ccc(OC)c(C(c2nnnn2C2CCCCC2)N2CCc3ccccc3C2)c1 (stereo not shown) | 82%
24 | COc1ccc(OC)c(C(c2nnnn2Cc2ccccc2)N2CCc3ccccc3C2)c1 (stereo not shown) | 90%
25 | COc1ccc(OC)c(C(c2nnnn2Cc2ccc(C)cc2)N2CCc3ccccc3C2)c1 (stereo not shown) | 91%
26 | COCCn1nnnc1C(c1cc(OC)ccc1OC)N1CCc2ccccc2C1 (stereo not shown) | 90%

Row | SMILES | T/C %
27 | Cc1ccc(Cn2nnnc2C(c2ccc(Cl)cc2)N2CCc3ccccc3C2)cc1 (stereo not shown) | 109%
28 | Cc1ccc(C(c2nnnn2CCc2ccccc2)N2CCc3ccccc3C2)cc1 (stereo not shown) | 108%
29 | Oc1ccc(C(c2nnnn2C2CCCCC2)N2CCc3ccccc3C2)cc1 (stereo not shown) | 104%
30 | Oc1ccc(C(c2nnnn2Cc2ccc(F)cc2)N2CCc3ccccc3C2)cc1 (stereo not shown) | 113%
31 | COc1cc(C(c2nnnn2C2CCCCC2)N2CCc3ccccc3C2)ccc1O (stereo not shown) | 97%
32 | COc1cc(C(c2nnnn2Cc2ccccc2)N2CCc3ccccc3C2)ccc1O (stereo not shown) | 94%
33 | COc1cc(C(c2nnnn2Cc2ccc(F)cc2)N2CCc3ccccc3C2)ccc1O (stereo not shown) | 91%
34 | COc1cc(C(c2nnnn2CCc2ccccc2)N2CCc3ccccc3C2)ccc1O (stereo not shown) | 91%
35 | Cc1ccc(C(c2nnnn2C2CCCC2)N2CCc3ccccc3C2)cc1 (stereo not shown) | 105%
36 | Cc1ccc(C(c2nnnn2Cc2ccc(F)cc2)N2CCc3ccccc3C2)cc1 (stereo not shown) | 117%
37 | COc1ccc(Cn2nnnc2C(c2ccccc2)N2CCc3ccccc3C2)cc1 (stereo not shown) | 104%
38 | Cc1ccc(Cn2nnnc2C(c2ccc(F)cc2)N2CCc3ccccc3C2)cc1 (stereo not shown) | 106%
39 | Fc1ccc(C(c2nnnn2CCc2ccccc2)N2CCc3ccccc3C2)cc1 (stereo not shown) | 103%
40 | COc1ccc(C(c2nnnn2Cc2ccccc2)N2CCc3ccccc3C2)cc1 (stereo not shown) | 110%
41 | COc1ccc(Cn2nnnc2C(c2ccc(OC)cc2)N2CCc3ccccc3C2)cc1 (stereo not shown) | 105%
42 | COc1ccc(C(c2nnnn2Cc2ccc(F)cc2)N2CCc3ccccc3C2)cc1OC (stereo not shown) | 96%
43 | COc1ccc(C(c2nnnn2C2CCCCC2)N2CCc3ccccc3C2)cc1OC (stereo not shown) | 87%
44 | COc1ccc(C(c2nnnn2C2CCCC2)N2CCc3ccccc3C2)cc1OC (stereo not shown) | 93%
45 | COc1ccc(C(c2nnnn2C2CCCCC2)N2CCc3ccccc3C2)cc1 (stereo not shown) | 111%
46 | Fc1ccc(C(c2nnnn2C2CCCC2)N2CCc3ccccc3C2)cc1 (stereo not shown) | 108%
47 | COc1ccc(OC)c(C(c2nnnn2CCc2ccccc2)N2CCc3ccccc3C2)c1 (stereo not shown) | 78%

Row | SMILES | T/C %
48 | CCC(C)(C)n1nnnc1C(c1ccc(O)c(OC)c1)N1CCc2ccccc2C1 (stereo not shown) | 122%
49 | COc1ccc(C(c2nnnn2CCc2ccccc2)N2CCc3ccccc3C2)cc1 (stereo not shown) | 114%
50 | Oc1ccc(C(c2nnnn2C2CCCC2)N2CCc3ccccc3C2)cc1 (stereo not shown) | 105%
51 | COc1ccc(C(c2nnnn2C2CCCCC2)N2CCc3ccccc3C2)c(OC)c1 (stereo not shown) | 113%
52 | COc1ccc(OC)c(C(c2nnnn2C2CCCC2)N2CCc3ccccc3C2)c1 (stereo not shown) | 92%
53 | COCCn1nnnc1C(c1ccc(F)cc1)N1CCc2ccccc2C1 (stereo not shown) | 96%
54 | COCCn1nnnc1C(c1ccc(OC)c(OC)c1)N1CCc2ccccc2C1 (stereo not shown) | 98%
55 | CCC(C)(C)n1nnnc1C(c1cc(OC)ccc1O)N1CCc2ccccc2C1 (stereo not shown) | 100%
56 | COc1ccc(C(c2nnnn2Cc2ccc(C)cc2)N2CCc3ccccc3C2)cc1 (stereo not shown) | 112%
57 | Cc1ccc(S(=O)(=O)Cn2nnnc2C(c2ccc(F)cc2)N2CCc3ccccc3C2)cc1 (stereo not shown) | 93%
58 | CCC(C)(C)n1nnnc1C(c1ccccc1OC)N1CCc2ccccc2C1 (stereo not shown) | 215%
59 | COCCn1nnnc1C(c1ccccc1OC)N1CCc2ccccc2C1 (stereo not shown) | 107%
60 | Cc1ccc(S(=O)(=O)Cn2nnnc2C(c2ccc(C(F)(F)F)cc2)N2CCc3ccccc3C2)cc1 (stereo not shown) | 102%
61 | c1ccc(CCn2nnnc2C(c2ccccc2)N2CCc3ccccc3C2)cc1 (stereo not shown) [drawing 106] | 128%
62 | c1ccc(C(c2nnnn2C2CCCCC2)N2CCc3ccccc3C2)cc1 (stereo not shown) [drawing 120] | 112%
63 | Cc1ccc(C(c2nnnn2Cc2ccccc2)N2CCc3ccccc3C2)cc1 (stereo not shown) [drawing 121] | 112%
64 | c1ccc(C(c2nnnn2C2CCCCC2)N2CCc3ccccc3C2)cc1 (stereo not shown) [drawing 138] | 98%
65 | Cc1ccc(C(c2nnnn2Cc2ccccc2)N2CCc3ccccc3C2)cc1 (stereo not shown) [drawing 140] | 102%
66 | c1ccc(CCn2nnnc2C(c2ccccc2)N2CCc3ccccc3C2)cc1 (stereo not shown) [drawing 142] | 111%
67 | Cc1ccc(C(c2nnnn2Cc2ccccc2)N2CCc3ccccc3C2)cc1 (stereo not shown) [drawing 151] | 103%

Molecular target: T1, human PGI2 receptors (hIP)
Assay: Method C: effect on epoprostenol-cAMP production curve in CHO/hIP cells (left shift value)
Type: cell-based
Details: Table 4, concentration of test compound that halves the EC50 of epoprostenol
Protocol: The effect of a test compound on the cAMP production curve with respect to the IP agonist epoprostenol (manufactured by GlaxoSmithKline) was investigated using CHO-K1 cells (CHO/hIP cells) in which human PGI2 receptors (hIP) are stably expressed.
An amount of 5 μL of a mixture (diluted in F-12 culture medium (manufactured by GIBCO) including 0.1% BSA) of epoprostenol dissolved in DMSO and a test compound dissolved in DMSO was dispensed in advance into a 384-well black microplate, and 5 μL of CHO/hIP cells suspended at a concentration of 1.4×10^6 cells/mL in F-12 culture medium including 0.1% BSA were added to the microplate. After 40 minutes of incubation at room temperature, the amount of cAMP was measured using a cAMP assay kit (cAMP HiRange, manufactured by Cisbio Bioassays). Specifically, 5 μL of a cAMP-d2 solution (including a cell lysate) from the kit were added and the reaction was stopped, then 5 μL of a fluorescence-labeled cAMP antibody solution from the kit were added and incubation was performed for 1 hour at room temperature, after which fluorescence was measured using a PHERAstar plate reader (manufactured by BMG) in HTRF (registered trademark) mode. The amount of cAMP in each well was calculated from a cAMP calibration curve obtained using a standard sample, and an epoprostenol-cAMP production curve for the presence of various concentrations of the test compound was created.

Row | SMILES | left shift value
68 | CCCOc1ccccc1C(c1nnnn1C(C)(C)C)N1CCc2ccccc2C1 (stereo not shown) [Example 52] | 4.3 µM
69 | CC(C)(C)n1nnnc1C(c1ccccc1Cl)N1CCc2ccccc2C1 (stereo not shown) [Example 53] | 7.2 µM
70 | Cc1ccccc1C(c1nnnn1C(C)(C)C)N1CCc2ccccc2C1 (stereo not shown) [Example 55] | 35 µM

Same assay, conditions: Table 5, concentration of test compound that halves the EC50 of epoprostenol

Row | SMILES | left shift value
71 | CC(C)(C)n1nnnc1C(c1ccccc1)N1CCc2sccc2C1 (stereo not shown) [Example 59, 5-((1-(tert-butyl)-1H-tetrazol-5-yl)(phenyl)methyl)-4,5,6,7-tetrahydrothieno[3,2-c]pyridine] | 16.1 µM
72 | COc1ccccc1C(c1nnnn1C(C)(C)C)N1CCc2sccc2C1 (stereo not shown) [Example 60, 5-((1-(tert-butyl)-1H-tetrazol-5-yl)(2-methoxyphenyl)methyl)-4,5,6,7-tetrahydrothieno[3,2-c]pyridine] | 10.5 µM
73 | CC(C)(C)n1nnnc1C(c1cccs1)N1CCc2sccc2C1 (stereo not shown) [Example 62, 5-((1-(tert-butyl)-1H-tetrazol-5-yl)(thiophen-2-yl)methyl)-4,5,6,7-tetrahydrothieno[3,2-c]pyridine] | 12.2 µM
